Assay results taken from article PMC7179653 (Antimicrobial Agents and Chemotherapy, 2020).

Experiment: SAD study: safety and tolerability (TEAEs)
Type: in vivo, human
Settings: for TEAE: Abdominal pain / TEAE: Application site rash / TEAE: Chest discomfort / TEAE: Cough / TEAE: Fatigue / TEAE: Feeling hot / TEAE: Headache / TEAE: Nasal congestion / TEAE: Rhinitis / TEAE: Sinus tachycardia / ≥1 TEAE / ≥1 drug-related TEAE / ≥1 serious TEAE / ≥1 severe TEAE: n = 6
Procedure: The two studies were randomized, double-blind, placebo-controlled studies that enrolled participants into sequential treatment cohorts using a 3:1 active treatment-to-placebo randomization ratio.
A sentinel dosing strategy was employed in both studies. […] In all cohorts, escalation to the next dose occurred after a safety review of the previous cohort. In the MAD study, sentinel dosing was performed in part 3, wherein participants were evaluated for safety up to 24 h after administration of the first drug combination (or placebo) on day 3, prior to enrolling additional participants.
Safety assessments included monitoring of AEs, laboratory safety tests (hematology, serum chemistry, and urinalysis), 12-lead ECG (discrete recordings and 24-h Holter recording), and vital signs (blood pressure, pulse rate, and body temperature). In the SAD study, safety assessments were performed predose at screening, at day 1, postdose periodically on days 1, 2, and 7 (follow-up), and at early withdrawal, if relevant. Blood samples for pharmacokinetic profiling in the SAD study were collected on day 1 before the morning infusion and 0.5, 1, 1.5, 2, 3, 4, 6, 8, 12, and 24 h postinfusion start. In the MAD study, safety assessments were done predose at screening, at day 2, postdose periodically on days 1, 2, 4, 7, and 8, on days 13 to 15 (follow-up), and at early withdrawal, if relevant. In the MAD study, blood samples were collected on days 1 and 9 prior to the morning infusion and 0.5, 1, 1.5, 2, 3, 4, 6, 8, and 12 h (on day 9 only) postinfusion start. On all other days, a single predose sample was collected for pharmacokinetic evaluation prior to the morning infusion. Blood was collected into lithium-heparin tubes and stored at a nominal –80°C temperature until analysis.

## NCCONC(=O)[C@@H]1CC[C@@H]2CN1C(=O)N2OS(=O)(=O)O [Nacubactam]
SAD, 50 mg
  TEAE: Abdominal pain: 0 n/E
  TEAE: Application site rash: 0 n/E
  TEAE: Chest discomfort: 1/1
  TEAE: Cough: 0 n/E
  TEAE: Fatigue: 1/1
  TEAE: Feeling hot: 0 n/E
  TEAE: Headache: 0 n/E
  TEAE: Nasal congestion: 1/1
  TEAE: Rhinitis: 0 n/E
  TEAE: Sinus tachycardia: 0 n/E
  ≥1 TEAE: 2/3
  ≥1 drug-related TEAE: 0 n/E
  ≥1 serious TEAE: 0 n
  ≥1 severe TEAE: 0 n
SAD, 150 mg
  TEAE: Abdominal pain: 0 n/E
  TEAE: Application site rash: 0 n/E
  TEAE: Chest discomfort: 0 n/E
  TEAE: Cough: 1/1
  TEAE: Fatigue: 0 n/E
  TEAE: Feeling hot: 1/1
  TEAE: Headache: 0 n/E
  TEAE: Nasal congestion: 0 n/E
  TEAE: Rhinitis: 0 n/E
  TEAE: Sinus tachycardia: 1/1
  ≥1 TEAE: 1/3
  ≥1 drug-related TEAE: 0 n/E
  ≥1 serious TEAE: 0 n
  ≥1 severe TEAE: 0 n
SAD, 500 mg
  TEAE: Abdominal pain: 0 n/E
  TEAE: Application site rash: 0 n/E
  TEAE: Chest discomfort: 0 n/E
  TEAE: Cough: 0 n/E
  TEAE: Fatigue: 0 n/E
  TEAE: Feeling hot: 0 n/E
  TEAE: Headache: 1/1
  TEAE: Nasal congestion: 0 n/E
  TEAE: Rhinitis: 1/1
  TEAE: Sinus tachycardia: 0 n/E
  ≥1 TEAE: 2/2
  ≥1 drug-related TEAE: 0 n/E
  ≥1 serious TEAE: 0 n
  ≥1 severe TEAE: 0 n
SAD, 1,000 mg
  TEAE: Abdominal pain: 1/1
  TEAE: Application site rash: 0 n/E
  TEAE: Chest discomfort: 0 n/E
  TEAE: Cough: 0 n/E
  TEAE: Fatigue: 1/1
  TEAE: Feeling hot: 0 n/E
  TEAE: Headache: 0 n/E
  TEAE: Nasal congestion: 0 n/E
  TEAE: Rhinitis: 0 n/E
  TEAE: Sinus tachycardia: 0 n/E
  ≥1 TEAE: 2/2
  ≥1 drug-related TEAE: 0 n/E
  ≥1 serious TEAE: 0 n
  ≥1 severe TEAE: 0 n
SAD, 2,000 mg
  TEAE: Abdominal pain: 0 n/E
  TEAE: Application site rash: 0 n/E
  TEAE: Chest discomfort: 0 n/E
  TEAE: Cough: 0 n/E
  TEAE: Fatigue: 0 n/E
  TEAE: Feeling hot: 0 n/E
  TEAE: Headache: 1/1
  TEAE: Nasal congestion: 0 n/E
  TEAE: Rhinitis: 0 n/E
  TEAE: Sinus tachycardia: 0 n/E
  ≥1 TEAE: 1/1
  ≥1 drug-related TEAE: 1/1
  ≥1 serious TEAE: 0 n
  ≥1 severe TEAE: 0 n
SAD, all nacubactam doses, 30 participants
  total number of AEs: 11
SAD, all nacubactam doses, eight of the 30 participants
  participants reporting one or more AEs: 26.7%
